Legend:
[1] = system: S. aureus bacteria; assay: zone of inhibition of extract solutions on agar culture plate; format: cell-based
Description: A nonwoven rayon gauze material (SofWick, a commercially available rayon gauze material manufactured by Johnson & Johnson) was graft polymerized with diallyldimethylammonium chloride (DADAMC) to 10 weight % poly(DADMAC), to form the cationic cellulose surface. Each gauze substrate treated in this manner measured approximately 40 square inches. One gram samples of cationic cellulose prepared in this manner (sample K), and untreated SofWick (sample L) were each soaked overnight in 25 ml of 0.5% SP solution. Samples were removed and squeezed to remove excess liquid. Samples were then washed in 25 mL of distilled water for one hour with agitation, and then squeezed to remove excess liquid. Each sample was subjected to four sequential extractions using 25 mL of distilled water for one hour at room temperature with agitation. Samples were squeezed to remove excess solution between extraction cycles. A fifth extraction was performed using pH 7.4 phosphate buffered saline (PBS). Saline is expected to remove a greater amount of pyrithione due to ion exchange. The extract solutions were tested for antimicrobial activity by placing single 20 microliter drops of the solutions at marked locations on an agar culture plate spread with ~3×10^3 CFU (continuous lawn) of S. aureus bacteria. Plates were incubated overnight at 37° C., and the diameter of the “zone of inhibition”, or “ZOI” was measured. […]

[2] = cited from earlier work

Row | Molecule | ZOI ([1]; 0.01% SP control solution) [mm] | ZOI ([1]; 0.1% SP control solution) [mm] | water solubility (aqueous solutions possible) ([2]; aqueous) [wt %] | max. solubility in water ([2]; water) [%]
1 | [Na+].[O-][n+]1ccccc1[S-] [SP, sodium pyrithione] | 12 | 26 | > 50 | 
2 | Zinc pyrithione |  |  |  | 0.0015

— patent US8007921B2, “Gypsum board containing antimicrobial and antibacterial compounds” (Quick-Med Technologies, Inc., priority 2003, dated 2011)
